Data reported in patent US10208059B2, “Heterocyclic modulators of HIF activity for treatment of disease” (Board of Regents, University of Texas System, priority 2012, dated 2019).

Tested on: 293T-HRE-GFP-luc cells
Assay: Cell-based reporter assay for IC50 determinations
Conditions: hypoxia 6 hrs (1% O2), luminescence, read-out: IC50 Classification
Description: Cell-Based Reporter Assay for IC50 Determinations
293T-HRE-GFP-luc cells were routinely maintained in DMEM media (high glucose version with GlutaMAX and HEPES, Gibco, catalog #10564) supplemented with 10% fetal bovine serum and 2 μg/mL puromycin (Invitrogen, catalog #A11138-03) using a humidified incubator (normoxia conditions consisting of 37° C., 5% CO2 and ambient O2).
In preparation for the reporter assay, cells were harvested and resuspended in DMEM media (high glucose version with GlutaMAX and HEPES) supplemented with 10% fetal bovine serum. Cells were inoculated into 384-well white Culturplates (Perkin Elmer catalog #6007680) at a density of 12,000 cells/well in a volume of 30 μL. The microplates were incubated overnight (approximately 17-19 hours) at 37° C. with 5% CO2 and ambient O2. Stock solutions of the test compounds were prepared in DMSO (Sigma, Catalog #D2650) and serially diluted 1:3 using DMSO. Compounds were additionally diluted (1:50) with culturemedium and 10 μL were added per well to the Culturplate. Following a 30 min. incubation under normoxia conditions, the plates were incubated in hypoxia for 6 hrs. (37° C., 5% CO2 and 1% O2). Steadylite Plus (Perkin Elmer, catalog #6016751) was then added (40 μL/well), the plates were mixed on an orbital shaker at room temperature in the dark for 15 min., and luminescence was measured using an Envision plate reader (Perkin Elmer). IC50 values were calculated using a four-parameter logistic curve fit. Results are shown below in Table 2; ND indicates no data.

SMILES | IC50 [nM]
Cc1nc(-c2noc(-c3ccc(OC(F)(F)F)cc3)n2)nn1Cc1cccc(N(C)C)c1 [Example 58, N,N-Dimethyl-3-((5-methyl-3-(5-(4-(trifluoromethoxy)phenyl)-1,2,4-oxadiazol-3-yl)-1H-1,2,4-triazol-1-yl)methyl)aniline] | 100 to 1000
Cc1nc(-c2nc(-c3ccc(OC(F)(F)F)cc3)no2)nn1Cc1cccc(O)c1 [Example 59, 3-((5-Methyl-3-(3-(4-(trifluoromethoxy)phenyl)-1,2,4-oxadiazol-5-yl)-1H-1,2,4-triazol-1-yl)methyl)phenol] | 100 to 1000
COCCOc1cccc(Cn2nc(-c3nc(-c4ccc(OC(F)(F)F)cc4)no3)nc2C)c1 [Example 60, 5-(1-{[3-(2-Methoxyethoxy)phenyl]methyl}-5-methyl-1H-1,2,4-triazol-3-yl)-3-[4-(trifluoromethoxy)phenyl]-1,2,4-oxadiazole] | < 100
Cc1nc(-c2nc(-c3ccc(OC(F)(F)F)cc3)no2)nn1Cc1cccc(OCC(N)=O)c1 [Example 61, 2-{3-[(5-Methyl-3-{3-[4-(trifluoromethoxy)phenyl]-124-oxadiazol-5-yl}-1H-124-triazol-1-yl)methyl]phenoxy}acetamide] | < 100
Cc1nc(-c2nc(-c3ccc(OC(F)(F)F)cc3)no2)nn1Cc1cccc(OCC(=O)N(C)C)c1 [Example 62, N N-Dimethyl-2-{3-[(5-methyl-3-{3-[4-(trifluoromethoxy)phenyl]-124-oxadiazol-5-yl}-1H-124-triazol-1-yl)methyl]phenoxy}acetamide] | < 100
Cc1nc(-c2nc(-c3ccc(OC(F)(F)F)cc3)no2)nn1Cc1cccc(OC(C)C)c1 [Example 63, 5-(5-Methyl-1-{[3-(propan-2-yloxy)phenyl]methyl}-1H-1,2,4-triazol-3-yl)-3-[4-(trifluoromethoxy)phenyl]-1,2,4-oxadiazole] | < 100
CCOc1cccc(Cn2nc(-c3nc(-c4ccc(OC(F)(F)F)cc4)no3)nc2C)c1 [Example 64, 5-{1-[(3-Ethoxyphenyl)methyl]-5-methyl-1H-1,2,4-triazol-3-yl}-3-[4-(trifluoromethoxy)phenyl]-1,2,4-oxadiazole] | < 100
Cc1nc(-c2nc(-c3ccc(OC(F)(F)F)cc3)no2)nn1Cc1cccc(OCCO)c1 [Example 65, 2-{3-[(5-Methyl-3-{3-[4-(trifluoromethoxy)phenyl]-1,2,4-oxadiazol-5-yl}-1H-1,2,4-triazol-1-yl)methyl]phenoxy}ethan-1-ol] | < 100
Cc1nc(-c2nc(-c3ccc(OC(F)(F)F)cc3)no2)nn1Cc1cccc(OCC#N)c1 [Example 66, 2-{3-[(5-Methyl-3-{3-[4-(trifluoromethoxy)phenyl]-1,2,4-oxadiazol-5-yl}-1H-1,2,4-triazol-1-yl)methyl]phenoxy}acetonitrile] | 100 to 1000
Cc1nc(-c2nc(-c3ccc(OC(F)(F)F)cc3)no2)nn1Cc1cccc(OCCNC(=O)OC(C)(C)C)c1 [Example 67, Tert-butyl N-(2-{3-[(5-methyl-3-{3-[4-(trifluoromethoxy)phenyl]-1,2,4-oxadiazol-5-yl}-1H-1,2,4-triazol-1-yl)methyl]phenoxy}ethyl)carbamate] | < 100
Cc1nc(-c2nc(-c3ccc(OC(F)(F)F)cc3)no2)nn1Cc1cccc(OC2COC2)c1 [Example 68, 5-(5-Methyl-1-{[3-(oxetan-3-yloxy)phenyl]methyl}-1H-1,2,4-triazol-3-yl)-3-[4-(trifluoromethoxy)phenyl]-1,2,4-oxadiazole] | < 100
Cc1nc(-c2nc(-c3ccc(OC(F)(F)F)cc3)no2)nn1Cc1cccc(OC2CCOCC2)c1 [Example 69, 5-(5-Methyl-1-{[3-(oxan-4-yloxy)phenyl]methyl}-1H-1,2,4-triazol-3-yl)-3-[4-(trifluoromethoxy)phenyl]-1,2,4-oxadiazole] | < 100
Cc1nc(-c2nc(-c3ccc(OC(F)(F)F)cc3)no2)nn1Cc1cccc(OCCN)c1 [Example 70, 5-(1-{[3-(2-Aminoethoxy)phenyl]methyl}-5-methyl-1H-1,2,4-triazol-3-yl)-3-[4-(trifluoromethoxy)phenyl]-1,2,4-oxadiazole] | 100 to 1000
Cc1nc(-c2nc(-c3ccc(OC(F)(F)F)cc3)no2)nn1Cc1cccc(OCCCO)c1 [Example 71, 3-{3-[(5-Methyl-3-{3-[4-(trifluoromethoxy)phenyl]-1,2,4-oxadiazol-5-yl}-1H-1,2,4-triazol-1-yl)methyl]phenoxy}propan-1-ol] | < 100
COC(C)(C)CCOc1cccc(Cn2nc(-c3nc(-c4ccc(OC(F)(F)F)cc4)no3)nc2C)c1 [Example 72, 5-(1-{[3-(3-Methoxy-3-methylbutoxy)phenyl]methyl}-5-methyl-1H-1,2,4-triazol-3-yl)-3-[4-(trifluoromethoxy)phenyl]-1,2,4-oxadiazole] | < 100
Cc1nc(-c2nc(-c3ccc(OC(F)(F)F)cc3)no2)nn1Cc1cccc(OC2CCN(C)CC2)c1 [Example 73, 1-Methyl-4-{3-[(5-methyl-3-{3-[4-(trifluoromethoxy)phenyl]-1,2,4-oxadiazol-5-yl}-1H-1,2,4-triazol-1-yl)methyl]phenoxy}piperidine] | < 100
Cc1nc(-c2nc(-c3ccc(OC(F)(F)F)cc3)no2)nn1Cc1cccc(OCCCN(C)C)c1 [Example 74, Dimethyl(3-{3-[(5-methyl-3-{3-[4-(trifluoromethoxy)phenyl]-1,2,4-oxadiazol-5-yl}-1H-1,2,4-triazol-1-yl)methyl]phenoxy}propyl)amine] | < 100
Cc1nc(-c2nc(-c3ccc(OC(F)(F)F)cc3)no2)nn1Cc1cc[nH]c(=O)c1 [Example 75, 4-[(5-Methyl-3-{3-[4-(trifluoromethoxy)phenyl]-1,2,4-oxadiazol-5-yl}-1H-1,2,4-triazol-1-yl)methyl]-1,2-dihydropyridin-2-one] | 100 to 1000
Cc1nc(-c2nc(-c3ccc(OC(F)(F)F)cc3)no2)nn1Cc1ccn(CC(C)C)c(=O)c1 [Example 76a, 4-[(5-Methyl-3-{3-[4-(trifluoromethoxy)phenyl]-1,2,4-oxadiazol-5-yl}-1H-1,2,4-triazol-1-yl)methyl]-1-(2-methylpropyl)-1,2-dihydropyridin-2-one] | 100 to 1000
Cc1nc(-c2nc(-c3ccc(OC(F)(F)F)cc3)no2)nn1Cc1ccnc(OCC(C)C)c1 [Example 76b, 4-[(5-Methyl-3-{3-[4-(trifluoromethoxy)phenyl]-1,2,4-oxadiazol-5-yl}-1H-1,2,4-triazol-1-yl)methyl]-2-(2-methylpropoxy)pyridine] | 100 to 1000
Cc1nc(-c2nc(-c3ccc(OC(F)(F)F)cc3)no2)nn1Cc1ccc(=O)n(CC(C)C)c1 [Example 77a, 5-[(5-Methyl-3-{3-[4-(trifluoromethoxy)phenyl]-1,2,4-oxadiazol-5-yl}-1H-1,2,4-triazol-1-yl)methyl]-1-(2-methylpropyl)-1,2-dihydropyridin-2-one] | < 100
Cc1nc(-c2nc(-c3ccc(OC(F)(F)F)cc3)no2)nn1Cc1ccc(OCC(C)C)nc1 [Example 77b, 5-[(5-Methyl-3-{3-[4-(trifluoromethoxy)phenyl]-1,2,4-oxadiazol-5-yl}-1H-1,2,4-triazol-1-yl)methyl]-2-(2-methylpropoxy)pyridine] | 100 to 1000
Cc1nc(-c2nc(-c3ccc(OC(F)(F)F)cc3)no2)nn1Cc1cccc(N)c1 [Example 78, 3-[(5-Methyl-3-{3-[4-(trifluoromethoxy)phenyl]-1,2,4-oxadiazol-5-yl}-1H-1,2,4-triazol-1-yl)methyl]aniline] | < 100
Cc1nc(-c2nc(-c3ccc(OC(F)(F)F)cc3)no2)nn1Cc1cccc(S(=O)(=O)N2CCN(C)CC2)c1 [Example 79, 1-Methyl-4-{3-[(5-methyl-3-{3-[4-(trifluoromethoxy)phenyl]-1,2,4-oxadiazol-5-yl}-1H-1,2,4-triazol-1-yl)methyl]benzenesulfonyl}piperazine] | < 100
Cc1nc(-c2nc(-c3ccc(OC(F)(F)F)cc3)no2)nn1Cc1cccc(N2CCNCC2)c1 [Example 81, 1-{3-[(5-Methyl-3-{3-[4-(trifluoromethoxy)phenyl]-1,2,4-oxadiazol-5-yl}-1H-1,2,4-triazol-1-yl)methyl]phenyl}piperazine] | < 100
Cc1nc(-c2nc(-c3ccc(OC(F)(F)F)cc3)no2)nn1Cc1cccc(N2CCN(S(C)(=O)=O)CC2)c1 [Example 82, 1-Methanesulfonyl-4-{3-[(5-methyl-3-{3-[4-(trifluoromethoxy)phenyl]-1,2,4-oxadiazol-5-yl}-1H-1,2,4-triazol-1-yl)methyl]phenyl}piperazine] | < 100
Cc1nc(-c2nc(-c3ccc(OC(F)(F)F)cc3)no2)nn1Cc1cccc(N2CCN(C(=O)CO)CC2)c1 [Example 83, 2-Hydroxy-1-(4-{3-[(5-methyl-3-{3-[4-(trifluoromethoxy)phenyl]-1,2,4-oxadiazol-5-yl}-1H-1,2,4-triazol-1-yl)methyl]phenyl}piperazin-1-yl)ethan-1-one] | < 100
C=Cc1cccc(Cn2nc(-c3nc(-c4ccc(OC(F)(F)F)cc4)no3)nc2C)c1 [Example 84, 5-{1-[(3-Ethenylphenyl)methyl]-5-methyl-1H-1,2,4-triazol-3-yl}-3-[4-(trifluoromethoxy)phenyl]-1,2,4-oxadiazole] | 100 to 1000
